Legend:
physchem [1] = assay: physchem
Description: Dissociation constant, pKa of the compound

physchem [2] = settings: octanol/water, pH 7.4
Description: Octanol-water distribution coefficient, log D at pH 7.4 at 25 degC by potentiometric titration method

[3] = Octanol-water distribution coefficient, log D by HPLC; type: physicochemical

In the case of CNC(=O)c1cn2c(C)c(C)nc2c2c1CCC1(CCc3ccccc31)O2 (stereo not given), the pKa (physchem [1]) is reported as 6.8 and the logD (physchem [2]) is reported as 3.29.

Cc1nc2c3c(c(C(=O)NC4CC4)cn2c1C)CCC1(CCc2ccccc21)O3 (stereo not given) showed a pKa (physchem [1]) of 6.76 and a logD (physchem [2]) of 3.64.

For Cc1nc2c3c(c(C(=O)N4CCC4)cn2c1C)CCC1(CCc2ccccc21)O3 (stereo not given), the pKa (physchem [1]) was 6.81 and the logD (physchem [2]) was 3.19.

Cc1nc2c3c(c(C(=O)N4CCCC4)cn2c1C)CCC1(CCc2ccccc21)O3 (stereo not given) gave a pKa (physchem [1]) of 6.88 and a logD (physchem [2]) of 3.36.

In the case of Cc1nc2c3c(c(C(=O)N4CCCCC4)cn2c1C)CCC1(CCc2ccccc21)O3 (stereo not given), the pKa (physchem [1]) is reported as 6.81 and the logD (physchem [2]) is reported as 3.87.

In the case of Cc1cccc2c1CCC21CCc2c(C(=O)N(C)C)cn3c(C)c(C)nc3c2O1 (stereo not given), the pKa (physchem [1]) is reported as 6.87 and the logD (physchem [2]) is reported as 3.42.

In the case of Cc1nc2c3c(c(C(=O)N(C)C)cn2c1C)CCC1(CCc2cc(F)ccc21)O3 (stereo not given), the logD [3] is reported as 3.

With Cc1nc2c3c(c(C(=O)N4CCOCC4)cn2c1C)CCC1(CCc2ccccc21)O3 (stereo not given) the pKa (physchem [1]) was 6.74 and the logD (physchem [2]) was 2.85.

Work on Cc1nc2c3c(c(C(=O)N(C)C)cn2c1C)CCC1(Cc2ccccc2C1)O3 yielded a logD [3] of 2.9 and a pKa (physchem [1]) of 6.84.

Work on Cc1nc2c3c(c(C(=O)N4CC(F)(F)C4)cn2c1C)CCC1(CCc2ccccc21)O3 (stereo not given) yielded a pKa (physchem [1]) of 6.55 and a logD (physchem [2]) of 3.57.

With Cc1nc2c3c(c(C(=O)Nc4ccccc4)cn2c1C)CCC1(CCc2ccccc21)O3 (stereo not given) the pKa (physchem [1]) was 6.76 and the logD (physchem [2]) was 4.7.

For CON(C)C(=O)c1cn2c(C)c(C)nc2c2c1CCC1(CCc3ccccc31)O2 (stereo not given), the pKa (physchem [1]) was 6.63 and the logD (physchem [2]) was 3.15.

For Cc1nc2c3c(c(C(=O)N(C)C)cn2c1C)CCC1(CCc2ccccc21)O3 (racemic), the pKa (physchem [1]) was 6.84 and the logD (physchem [2]) was 2.91.
